The text below walks through data of patent US7468421B2, “Depilatories and agents for external use” (Kao Corporation, priority 1999, dated 2008).

Where no end group is shown, it is not given here.

Experiment [1] has as its system dorsal part of a guinea pig. As to the kind of experiment: Depilation inducing effects of endothelin, intracutaneous administration. The class given is in vivo. To be noted: 0.3 μg intracutaneously, 50 μL/site, 10 days after the administration. The protocol: A solution of endothelin-1 (0.3 μg) in phosphate buffer solution (PBS), which contained 0.1% of bovine serum albumin (BSA), was intracutaneously administered (at 50 μL/site) to the dorsal part of a guinea pig.

Experiment [2] deals with growth-phase hair follicle. Briefly: Structural changes of hair follicle structure by the administration of endothelin, hematoxylin-eosin staining. The settings on record: 0.3 μg intracutaneously. Type of experiment: in vivo, guinea pig. The protocol: A solution of endothelin-1 (0.3 μg) in phosphate buffer solution (PBS), which contained 1.1% of bovine serum albumin (BSA), was intracutaneously administered (at 50 μL/site) to the dorsal part of a guinea pig. After that, samples were collected day after day from the administered dorsal skin, and tissue samples were prepared by hematoxylin-eosin staining.

In experiment [3] the test system is growth-phase hair follicles. Briefly: Growth-phase hair follicle inhibitory effects of endothelin, count of hair shafts. Type of experiment: in vivo, guinea pig. The settings on record: 1 μg intracutaneously, 50 μL/site, fifth day after the administration. On the procedure: Solutions (1 μg, each) of endothelin-1, endothelin-2 and endotherin-3 in aliquots of phosphate buffer solution (PBS), which contained 0.1% of bovine serum albumin (BSA), were intracutaneously administered (at 50 μL/site) to the dorsal parts of guinea pigs, respectively, from which hair had been cut off by a hair clipper. Three days after the administration, hair was again cut off by a hair clipper from the administered sites. Two days after the cutting, the numbers of hair shafts grown per unit area at the administered sites were counted.

In experiment [4] the test system is hair follicle organs in growth phase from a human scalp tissue. Briefly: Growth inhibitory effects on organ-cultured hair follicles. Type of experiment: cell-based. The protocol:
From a human scalp tissue, hair follicle organs in growth phase were surgically isolated under a stereomicroscope. Following a conventional procedure [Philpott M. P., et al., J. Cell Sci., 97, 463-471 (1990)], the isolated hair follicles were subjected to organ culture. Described specifically, endothelin-1 was added to William's E medium which contained L-glutamine (2 mM), hydrocortisone (10 ng/mL), insulin (10 μg/mL), sodium selenite (10 ng/mL) and transferrin (10 μg/mL).

Experiment [5] deals with endothelin-induced depilation spot. Briefly: Concurrent administration of endothelin inhibitor on the endothelin-induced formation of depilation spot. The class given is in vivo, guinea pig. To be noted: 10 days after the administration; endothelin-1 0.3 μg, PD142893 10 μg, intracutaneous. On the procedure: As described in Example 1, endothelin (0.3 μg) was intracutaneously administered to the dorsal part of each guinea pig, and PD142893 (10 μg) as an endothelin inhibitor was also administered concurrently.
The size of a depilation spot formed 10 days after the administration was determined in terms of a product of its long diameter and short diameter.

The subject of experiment [6] is C3H/HeNCrj mouse. Briefly: Hair growth test in mice. The class given is in vivo. The settings on record: 0.5 mg in 2.5 mL PEG 400/PEG 3350 (95/5), 25 μL/application once a day over 2 weeks, applied to depilated dorsal skin. On the procedure:
Endothelin-1 (0.5 mg) was dissolved in a mixed solution (2.5 mL) of polyethylene glycol 400 (average molecular weight: 400) and polyethylene glycol 3350 (average molecular weight: 3,350) (mixing ratio: 95/5) to prepare a hair growth inhibitor. Dorsal hair of each 8-week old C3H/HeNCrj mouse was removed with a depilatory cream (over an area of 2×4 cm^2), and the hair growth inhibitor was applied to the depilated site once a day at a dose of 25 μL/application over 2 weeks. A group in which only the solvent was similarly applied was employed as a control group. To observe regrowth of hair, the above-described depilated site on day 14 after the depilation was photographed at a predetermined fixed magnification, and the percentage of a regrown hair area (regrown hair area/depilated area×100) was determined using an image analyzer.

For `CC[C@H](C)[C@H](NC(=O)[C@H](CC(=O)O)NC(=O)[C@H](CC(C)C)NC(=O)[C@H](Cc1c[nH]cn1)NC(=O)[C@@H]1CSSC[C@H](N)C(=O)N[C@@H](CO)C(=O)N[C@H]2CSSC[C@H](NC(=O)[C@H](CCC(=O)O)NC(=O)[C@H](CCCCN)NC(=O)[C@H](CC(=O)O)NC(=O)[C@H](CCSC)NC(=O)[C@H](CC(C)C)NC(=O)[C@H](CO)NC(=O)[C@H](CO)NC2=O)C(=O)N[C@@H](C(C)C)C(=O)N[C@@H](Cc2ccc(O)cc2)C(=O)N[C@@H](Cc2ccccc2)C(=O)N1)C(=O)N[C@H](C(=O)N[C@@H](Cc1c[nH]c2ccccc12)C(=O)O)[C@@H](C)CC` [Endothelin-1, endothelin-1], the “observation at the administered site (depilation)” value in experiment [1] is “hair shaft falling-off and formation of a marked depilation spot”. In addition, the “histological image of hair follicle” value in experiment [2] (1st day after the administration) is recorded as “regressed image of a growth-phase hair follicle”; in experiment [2] (3rd day after the administration) it was “image of a follicular tissue in transition phase”. In addition, the “number of hair shafts grown per unit area at the administered site” value in experiment [3] is reported as “significant (p<0.01) decrease in the number of hair shafts”. The “percent regression of growth-phase hair follicles” value in experiment [4] (10 ng/mL added endothelin, Day 1 of incubation) was 0.0%; in experiment [4] (10 ng/mL added endothelin, Day 2 of incubation) it was 0.0%; in experiment [4] (10 ng/mL added endothelin, Day 4 of incubation) it was 17.6%; in experiment [4] (10 ng/mL added endothelin, Day 6 of incubation), 35.3%; in experiment [4] (100 ng/mL added endothelin, Day 1 of incubation), 0.0%; in experiment [4] (100 ng/mL added endothelin, Day 2 of incubation) it was 0.0%. Also, the “percent regression of growth-phase hair follicles” value in experiment [4] (100 ng/mL added endothelin, Day 4 of incubation) is reported as 23.5%; in experiment [4] (100 ng/mL added endothelin, Day 6 of incubation), 41.2%. Moreover, the “grown hair follicle lengths compared with control group” value in experiment [4] (day 4 of incubation and the subsequent days (FIG. 3)) is listed as “significant hair growth inhibitory effects”. Further, the “structural change of incubated hair follicles” value in experiment [4] (during the incubation period (FIG. 4)) was “structural change of the endothelin-treated, growth-phase hair follicles into those similar to resting-phase hair follicles”. In addition, the “Product of long diameter and short diameter of depilation spot (mean ± S.D., N = 6)” value in experiment [5] is reported as 81.47 ± 6.53 mm^2. Also, the “Percentage of regrown hair area on day 14 after depilation” value in experiment [6] is on record as 2.22%.

“endothelin-2 (CSCSSWLDKECVYFCHLDIIW; ends and bridges not checked; cysteine pairing not given here; UniProt P20800 49-69, looked up) [peptide composed of 21 amino acid residues; isoform of endothelin]”: the “number of hair shafts grown per unit area at the administered site” value in experiment [3] is “significant (p<0.01) decrease in the number of hair shafts”.

Take “endothelin-3 (CTCFTYKDKECVYYCHLDIIW; ends and bridges not checked; cysteine pairing not given here; UniProt P14138 97-117, looked up) [endotherin-3, peptide composed of 21 amino acid residues; isoform of endothelin]”: the “number of hair shafts grown per unit area at the administered site” value in experiment [3] is given as “significant (p<0.01) decrease in the number of hair shafts”.
